Here are results for 35 molecules from patent US9144238B2, “Active compound combinations” (BAYER INTELLECTUAL PROPERTY GMBH, priority 2011, dated 2015).

One data set deals with Phytophthora infestans. The experiment in a line: whole plant or invertebrate. It counts as in vivo. The note with it: tomatoes; for pest or weed control at 1 ppm / pest or weed control at 2 ppm: read-out: Efficacy in % found, Table 4; for pest or weed control at 2 ppm: 2 ppm a.i.; for pest or weed control at 10 ppm: read-out: Efficacy in % found, Table 1.
A further data set concerns Venturia inaequalis. Briefly: Venturia test (apples)/preventive. It counts as in vivo. Particulars: for pest or weed control at 4 ppm: Table 10, 4 ppm a.i. The protocol: To produce a suitable preparation of active compound, 1 part by weight of active compound is mixed with the stated amounts of solvent and emulsifier, and the concentrate is diluted with water to the desired concentration.
To test for preventive activity, young plants are sprayed with the preparation of active compound at the stated rate of application. After the spray coating has dried on, the plants are inoculated with an aqueous conidia suspension of the causal agent of apple scab (Venturia inaequalis) and then remain for 1 day in an incubation cabinet at approximately 20° C. and a relative atmospheric humidity of 100%.
The plants are then placed in a greenhouse at approximately 21° C. and a relative atmospheric humidity of approximately 90%.
The test is evaluated 10 days after the inoculation. 0% means an efficacy which corresponds to that of the untreated control, while an efficacy of 100% means that no disease is observed.

The test system of the next data set is Alternaria solani. Briefly: whole plant or invertebrate. The class given is in vivo. Particulars: for Efficacy in % found: in vivo.
[1] abbreviates: Venturia inaequalis, 240 h, read-out: Efficacy in % found.
Setting [2] is: Alternaria solani, 72 h, read-out: Efficacy in % found.
[3] abbreviates: Phytophthora infestans, 72 h, 1 ppm a.i.
The mark [4] stands for this setting: Phytophthora infestans, 72 h, 10 ppm a.i.

Values joined by “and” are separate entries in the source; they are usually repeats but may differ in a detail not shown here. Identical values can stand only once.

Procedure for physchem: Measurement of log P values was performed according EEC directive 79/831 Annex V.A8 by HPLC (High Performance Liquid
Chromatography) on reversed phase columns with the following methods:
^[a]Measurement was done at pH 2.3 with 0.1% phosphoric acid and acetonitrile as eluent.

Take `C[C@@]1(c2ccc(Oc3ccccc3)cc2)OC(=O)N(Nc2ccccc2)C1=O` (racemic) [3.9, famoxadone]: the pest or weed control at 2.5 ppm in the data set with Phytophthora infestans (Phytophthora infestans, 72 h, read-out: Efficacy in % found, Table 5, 2.5 ppm a.i.) was 30%.
As usually defined, the chromatographic logP is lipophilicity estimated from chromatographic retention. The molecule `O=C(Cn1nc(C(F)F)cc1C(F)F)N1CCC(c2nc(C3=NOC(c4c(F)ccc(O)c4F)C3)cs2)CC1` (stereo not drawn) [2-[3,5-bis(difluoromethyl)-1H-pyrazol-1-yl]-1-(4-{4-[5-(2,6-difluoro-3-hydroxyphenyl)-4,5-dihydro-1,2-oxazol-3-yl]-1,3-thiazol-2-yl}piperidin-1-yl)ethanone] showed a chromatographic logP in the data set “physchem” (pH 2.7) of 2.61.
Same read-out and setting: next, `O=C(Cn1nc(C(F)F)cc1C(F)F)N1CCC(c2nc(C3=NOC(c4c(F)cc(O)cc4F)C3)cs2)CC1` (stereo not drawn) [2-[3,5-bis(difluoromethyl)-1H-pyrazol-1-yl]-1-(4-{4-[5-(2,6-difluoro-4-hydroxyphenyl)-4,5-dihydro-1,2-oxazol-3-yl]-1,3-thiazol-2-yl}piperidin-1-yl)ethanone]: 2.58.
As for `Cn1cc(C(=O)Nc2ccc(F)cc2-c2ccc(Cl)c(Cl)c2)c(C(F)F)n1` [2.1, bixafen], the “Efficacy in % found” value in the data set on Venturia inaequalis (Table 10, 0.5 ppm a.i.) worked out at 26%; with Alternaria solani it was 60%.
As to `O=C(NCCc1ncc(C(F)(F)F)cc1Cl)c1ccccc1C(F)(F)F` [2.6, fluopyram], the pest or weed control at 4 ppm with Venturia inaequalis (setting [1]) was 33%.
`Cn1cc(C(=O)Nc2ccccc2-c2cc(F)c(F)c(F)c2)c(C(F)F)n1` [2.8, fluxapyroxad]: the “Efficacy in % found” value in the data set on Venturia inaequalis (Table 10, 0.5 ppm a.i.) was 54%; in the data set with Alternaria solani, 63%.
With `CC(C)C1C2CCC1c1c(NC(=O)c3cn(C)nc3C(F)F)cccc12` (stereo not drawn) [2.12, isopyrazam], the “Efficacy in % found” value with Venturia inaequalis (Table 10, 0.5 ppm a.i.) turned out to be 76%; with Alternaria solani, 60%.
For `COC(c1ccc(Cl)cc1Cl)C(C)NC(=O)c1cn(C)nc1C(F)F` (stereo not drawn) [2.27, N-[1-(2,4-dichlorophenyl)-1-methoxypropan-2-yl]-3-(difluoromethyl)-1-methyl-1H-pyrazole-4-carboxamide], the pest or weed control at 4 ppm with Venturia inaequalis (setting [1]) was determined as 87%.
As to `Cn1cc(C(=O)Nc2cccc3c2C2CCC3C2=C(Cl)Cl)c(C(F)F)n1` (stereo not drawn) [2.29, N-[9-(dichloromethylene)-1,2,3,4-tetrahydro-1,4-methanonaphthalen-5-yl]-3-(difluoromethyl)-1-methyl-1H-pyrazole-4-carboxamide], in the data set on Alternaria solani (setting [2]), the pest or weed control at 0.25 ppm amounted to 40%.
Regarding `CCCCCCCCc1c(CC)nc2ncnn2c1N` [3.1, ametoctradin], the “Efficacy in % found” value in the data set on Phytophthora infestans (Table 1, 10 ppm a.i.) amounted to 0%; with Phytophthora infestans (Table 5, 2.5 ppm a.i.) it was 52%.
Take `CO/C=C(/C(=O)OC)c1ccccc1Oc1cc(Oc2ccccc2C#N)ncn1` [3.3, azoxystrobin]: the “Efficacy in % found” value with Phytophthora infestans (Table 4, 1 ppm a.i.) turned out to be 0%; in the data set with Alternaria solani, 9%.
Regarding `Cc1ccc(-c2c(Cl)nc(C#N)n2S(=O)(=O)N(C)C)cc1` [3.4, cyazofamid], in the data set on Phytophthora infestans (Phytophthora infestans, 72 h, read-out: Efficacy in % found, Table 5, 0.1 ppm a.i.), the pest or weed control at 0.1 ppm is 0%.
With `CSC1=N[C@@](C)(c2ccccc2)C(=O)N1Nc1ccccc1` [3.10, fenamidone], in the data set on Phytophthora infestans (Phytophthora infestans, 72 h, read-out: Efficacy in % found, Table 2, 0.25 ppm a.i.), the pest or weed control at 0.25 ppm was found to be 6%.
`CO/N=C(/C1=NOCCO1)c1ccccc1Oc1ncnc(Oc2ccccc2Cl)c1F` [3.12, fluoxastrobin]: the pest or weed control at 1 ppm with Phytophthora infestans (setting [3]) came out at 0%. For the same molecule, the pest or weed control at 2 ppm with Phytophthora infestans (Phytophthora infestans, 72 h) was 0%. Besides, in the data set with Alternaria solani (setting [2]), the pest or weed control at 0.5 ppm was 18%.
On to `COC(=O)N(OC)c1ccccc1COc1ccn(-c2ccc(Cl)cc2)n1` [3.17, pyraclostrobin], for which the pest or weed control at 1 ppm with Phytophthora infestans (setting [3]) came to 0%. In addition, in the data set with Phytophthora infestans (Phytophthora infestans, 72 h), the pest or weed control at 2 ppm was determined as 0%. In addition, the pest or weed control at 0.25 ppm with Alternaria solani (setting [2]) amounted to 18%.
On to `CON=C(C(=O)OC)c1ccccc1CON=C(C)c1cccc(C(F)(F)F)c1` [3.22, trifloxystrobin], for which the pest or weed control at 0.25 ppm came to 0% with Venturia inaequalis (Venturia inaequalis, 240 h, Table 11, 0.25 ppm a.i., read-out: Efficacy in % found) and 18% with Alternaria solani (setting [2]). The pest or weed control at 1 ppm in the data set on Phytophthora infestans (setting [3]) stood at 0%. Further, in the data set on Phytophthora infestans (Phytophthora infestans, 72 h), the pest or weed control at 2 ppm was found to be 0%.
`Oc1cc(F)c(C2CC(c3csc(C4CCNCC4)n3)=NO2)c(F)c1` (stereo not drawn) [4-{4-[5-(2,6-difluoro-4-hydroxyphenyl)-4,5-dihydro-1,2-oxazol-3-yl]-1,3-thiazol-2-yl}piperidinium chloride]: the chromatographic logP in “physchem” (pH 2.7) was found to be 0.98.
For the molecule `O=C(NCc1ncc(C(F)(F)F)cc1Cl)c1c(Cl)cccc1Cl` [4.6, fluopicolide], in the data set on Phytophthora infestans (Table 5, 0.5 ppm a.i.), the “Efficacy in % found” value amounted to 12%.
For the molecule `[Cu+2].[OH-].[OH-]` [5.5, copper hydroxide], the “Efficacy in % found” value in the data set on Alternaria solani was determined as 16%.
For the molecule `[Cl-].[Cu+2].[Cu+2].[OH-].[OH-].[OH-]` [5.8, copper oxychloride], the “Efficacy in % found” value in the data set with Venturia inaequalis (Table 11, 50 ppm a.i.) is listed as 54%; in the data set with Phytophthora infestans (Table 2, 5 ppm a.i.) it was 12%; in the data set with Phytophthora infestans (Table 2, 10 ppm a.i.) it was 10%; in the data set on Alternaria solani, 7%.
`C#CCOc1ccc(CCNC(=O)C(OCC#C)c2ccc(Cl)cc2)cc1OC` (stereo not drawn) [9.5, mandipropamid]: in the data set on Phytophthora infestans (Table 1, 0.2 ppm a.i.), the “Efficacy in % found” value is given as 0%.
With `O=[N+]([O-])c1cc(C(F)(F)F)c(Cl)c([N+](=O)[O-])c1Nc1ncc(C(F)(F)F)cc1Cl` [14.4, fluazinam], the pest or weed control at 10 ppm in the data set with Phytophthora infestans (setting [4]) is 0%.
Regarding `CCNC(=O)NC(=O)/C(C#N)=N/OC` [15.9, cymoxanil], in the data set on Phytophthora infestans (setting [4]), the pest or weed control at 10 ppm is 0%.
Consider `OP(O)O` [15.41, phosphorous acid], for which the “Efficacy in % found” value with Phytophthora infestans (Table 1, 10 ppm a.i.) worked out at 0%.
Regarding `Cn1c(=O)c2sc3c(=O)n(C)c(=O)c3sc2c1=O` [15.60, 2,6-dimethyl-1H,5H-[1,4]dithiino[2,3-c:5,6-c′]dipyrrole-1,3,5,7(2H,6H)-tetrone], the pest or weed control at 25 ppm in the data set with Venturia inaequalis (Venturia inaequalis, 240 h, Table 11, 25 ppm a.i., read-out: Efficacy in % found) came to 54%; with Alternaria solani (setting [2]), 29%. Besides, in the data set with Phytophthora infestans (Phytophthora infestans, 72 h, read-out: Efficacy in % found, Table 2, 5 ppm a.i.), the pest or weed control at 5 ppm came to 49%.
In the case of `C#CCOc1cccc(C2CC(c3csc(C4CCN(C(=O)Cn5nc(C(F)F)cc5C(F)F)CC4)n3)=NO2)c1` (stereo not drawn) [(I-3), 2-[3,5-bis(difluoromethyl)-1H-pyrazol-1-yl]-1-[4-(4-{5-[3-(prop-2-yn-1-yloxy)phenyl]-4,5-dihydro-1,2-oxazol-3-yl}-1,3-thiazol-2-yl)piperidin-1-yl]ethanone], the chromatographic logP in the data set “physchem” (pH 2.7) amounted to 3.16; in “physchem” (pH 7.8) it was 3.24.
The molecule `C#CCOc1cc(F)c(C2CC(c3csc(C4CCN(C(=O)Cn5nc(C(F)F)cc5C(F)F)CC4)n3)=NO2)c(F)c1` (stereo not drawn) [(I-4), 2-[3,5-bis(difluoromethyl)-1H-pyrazol-1-yl]-1-[4-(4-{5-[2,6-difluoro-4-(prop-2-yn-1-yloxy)phenyl]-4,5-dihydro-1,2-oxazol-3-yl}-1,3-thiazol-2-yl)piperidin-1-yl]ethanone] yielded a chromatographic logP in the data set “physchem” (pH 2.7) of 3.3.
On to `C#CCOc1ccc(F)c(C2CC(c3csc(C4CCN(C(=O)Cn5nc(C(F)F)cc5C(F)F)CC4)n3)=NO2)c1F` (stereo not drawn) [(I-7), 2-[3,5-bis(difluoromethyl)-1H-pyrazol-1-yl]-1-[4-(4-{5-[2,6-difluoro-3-(prop-2-yn-1-yloxy)phenyl]-4,5-dihydro-1,2-oxazol-3-yl}-1,3-thiazol-2-yl)piperidin-1-yl]ethanone], for which, in “physchem” (pH 2.7), the chromatographic logP was found to be 3.17. The chromatographic logP values of the last two molecules are within 0.2 log units of each other.
Consider `C#CCOc1ccc(F)cc1C1CC(c2csc(C3CCN(C(=O)Cn4nc(C(F)F)cc4C(F)F)CC3)n2)=NO1` (stereo not drawn) [(I-8), 2-[3,5-bis(difluoromethyl)-1H-pyrazol-1-yl]-1-[4-(4-{5-[5-fluoro-2-(prop-2-yn-1-yloxy)phenyl]-4,5-dihydro-1,2-oxazol-3-yl}-1,3-thiazol-2-yl)piperidin-1-yl]ethanone], for which the values for the chromatographic logP in “physchem” (pH 2.7) and in “physchem” (pH 7.8) were 3.37 and 3.44, respectively.
Consider `C#CCOc1cc(OC)ccc1C1CC(c2csc(C3CCN(C(=O)Cn4nc(C(F)F)cc4C(F)F)CC3)n2)=NO1` (stereo not drawn) [(I-9), 2-[3,5-bis(difluoromethyl)-1H-pyrazol-1-yl]-1-[4-(4-{5-[4-methoxy-2-(prop-2-yn-1-yloxy)phenyl]-4,5-dihydro-1,2-oxazol-3-yl}-1,3-thiazol-2-yl)piperidin-1-yl]ethanone], for which the chromatographic logP in the data set “physchem” (pH 2.7) was 3.25; in the data set “physchem” (pH 7.8) it was 3.2.
In the case of `C#CCOc1c(F)cccc1C1CC(c2csc(C3CCN(C(=O)Cn4nc(C(F)F)cc4C(F)F)CC3)n2)=NO1` (stereo not drawn) [(I-10), 2-[3,5-bis(difluoromethyl)-1H-pyrazol-1-yl]-1-[4-(4-{5-[3-fluoro-2-(prop-2-yn-1-yloxy)phenyl]-4,5-dihydro-1,2-oxazol-3-yl}-1,3-thiazol-2-yl)piperidin-1-yl]ethanone], the chromatographic logP was found to be 3.37 in “physchem” (pH 2.7) and 3.48 in the data set “physchem” (pH 7.8).
For the molecule fosetyl-aluminium [15.24], in the data set on Phytophthora infestans (Table 1, 10 ppm a.i.), the “Efficacy in % found” value came out at 0%.
Regarding metiram [5.25], the “Efficacy in % found” value turned out to be 12% in the data set on Phytophthora infestans (Table 2, 5 ppm a.i.); 24% in the data set on Phytophthora infestans (Table 2, 10 ppm a.i.); 36% in the data set with Alternaria solani.
Turning to propamocarb hydrochloride [10.10], the “Efficacy in % found” value in the data set on Phytophthora infestans (Table 2, 5 ppm a.i.) is recorded as 7%; in the data set on Phytophthora infestans (Table 4, 10 ppm a.i.), 18%.
Regarding propineb [5.29], the “Efficacy in % found” value is 24% with Phytophthora infestans (Table 3, 10 ppm a.i.); 2% and 0% in the data set on Alternaria solani.
